Results from US20240376090A1, “ISOXAZOLE DERIVATIVES AS MODULATORS OF THE 5-HT2A SEROTONIN RECEPTOR USEFUL FOR THE TREATMENT OF DISORDERED RELATED THERETO” (Arena Pharmaceuticals, Inc., priority 2020, published 2024).
Values belong to the compound of their own block, whether it stands above or below them.

Target: 5-HT2A receptor (Homo sapiens (Human), UniProt P28223)
Test: Radioligand binding assay ([3H]5-HT competition), 5-HT2A
Settings: [3H]5-HT radioligand, membranes of HEK293 cells expressing recombinant 5-HT2A; Ki from IC50 by Cheng-Prusoff; read-out: 5-HT2A serotonin binding Ki value
Procedure: Competition binding experiments consisted of addition of 5 μL of serially diluted test compound, 50 μL of radioligand stock diluted in Assay Buffer (20 mM HEPES, pH 7.4, 10 mM MgCl2), and 145 μL of diluted membrane expressing the receptor of interest to 96-well microtiter plates, which were then incubated for one hour at room temperature. Assay incubations were terminated by rapid filtration through Perkin Elmer GF/C filtration plates under vacuum pressure using a 96-well Packard filtration apparatus, followed by washing the filter plates several times with ice cold Assay Buffer. Plates were then dried at 45° C. for a minimum of four hours. Finally, 25 μL of BetaScint scintillation cocktail was added to each well and the plates were counted in a Packard TopCount scintillation counter. In each competition study, test compounds were assayed at 10 concentrations with three replicates at each test concentration. Dose-response curves were constructed to determine IC50 values and these were converted to corresponding Ki values using the Cheng-Prusoff equation.

Sequence of 5-HT2A receptor (P28223 whole entry): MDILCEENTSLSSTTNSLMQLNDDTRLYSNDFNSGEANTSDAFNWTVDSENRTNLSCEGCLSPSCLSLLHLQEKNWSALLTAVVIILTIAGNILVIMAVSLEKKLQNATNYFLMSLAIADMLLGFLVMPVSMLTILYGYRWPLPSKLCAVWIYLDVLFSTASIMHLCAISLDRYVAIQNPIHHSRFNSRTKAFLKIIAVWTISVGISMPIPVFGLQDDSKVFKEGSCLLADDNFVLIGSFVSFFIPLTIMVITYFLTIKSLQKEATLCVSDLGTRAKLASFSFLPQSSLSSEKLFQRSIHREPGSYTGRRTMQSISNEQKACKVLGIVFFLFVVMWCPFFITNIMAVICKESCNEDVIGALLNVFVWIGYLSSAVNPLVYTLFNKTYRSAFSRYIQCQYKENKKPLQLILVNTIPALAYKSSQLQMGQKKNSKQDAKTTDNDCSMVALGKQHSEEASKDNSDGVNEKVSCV

Compound: Cc1noc(C)c1-c1cc(NC(=O)c2ccncc2F)ccc1OCCN1CCCC1 [Compound 103, N-(3-(3,5-dimethylisoxazol-4-yl)-4-(2-(pyrrolidin-1-yl)ethoxy)phenyl)-3-fluoroisonicotinamide]
Ki: 50.8 nM

Compound: Cc1nc(C(C)C)sc1C(=O)Nc1ccc(OC[C@H]2CCCCN2)c(-c2c(C)noc2C)c1 [Compound 231, (R)—N-(3-(3,5-dimethylisoxazol-4-yl)-4-(piperidin-2-ylmethoxy)phenyl)-2-isopropyl-4-methylthiazole-5-carboxamide]
Ki: 16.8 nM

Compound: Cc1noc(C)c1-c1cc(NC(=O)C2CC2)ccc1OCCN1CCC12COC2 [Compound 157, N-[3-(3,5-dimethylisoxazol-4-yl)-4-[2-(6-oxa-1-azaspiro[3.3]heptan-1-yl)ethoxy]phenyl]cyclopropanecarboxamide]
Ki: 2070 nM

Ki: 59.4 nM
Compound: Cc1noc(C)c1-c1cc(NC(=O)C2(F)CC2)ccc1O[C@H]1CCNC1 [Compound 239, (S)—N-(3-(3,5-dimethylisoxazol-4-yl)-4-(pyrrolidin-3-yloxy)phenyl)-1-fluorocyclopropane-1-carboxamide]

Compound: CCOC1CC1C(=O)Nc1ccc(OCCN2CCOCC2)c(-c2c(C)noc2C)c1 (centres unmarked) [Compound 135, N-[3-(3,5-dimethylisoxazol-4-yl)-4-(2-morpholinoethoxy)phenyl]-2-ethoxy-cyclopropanecarboxamide]
Ki: 20.1 nM

Compound: Cc1noc(C)c1-c1cc(NC(=O)C2CC2)ccc1OCCN1CCCC1 [Compound 167, N-[3-(3,5-dimethylisoxazol-4-yl)-4-(2-pyrrolidin-1-ylethoxy)phenyl]cyclopropanecarboxamide]
Ki: 7.71 nM

Compound: Cc1noc(C)c1-c1cc(NC(=O)C2CC2)ccc1O[C@@H]1CCCNC1 [Compound 179, (R)—N-(3-(3,5-dimethylisoxazol-4-yl)-4-(piperidin-3-yloxy)phenyl)cyclopropanecarboxamide]
Ki: 85.9 nM

Compound: Cc1noc(C)c1-c1cc(NC(=O)c2cnoc2)ccc1OC[C@H]1CCCCN1 [Compound 182, N-[3-(3,5-dimethylisoxazol-4-yl)-4-[[(2R)-2-piperidyl]methoxy]phenyl]isoxazole-4-carboxamide]
Ki: 61.5 nM

Compound: COc1ccc(CC(=O)Nc2ccc(OC[C@H]3CCCCN3)c(-c3c(C)noc3C)c2)cc1 [Compound 224, (R)—N-(3-(3,5-dimethylisoxazol-4-yl)-4-(piperidin-2-ylmethoxy)phenyl)-2-(4-methoxyphenyl)acetamide]
Ki: 1.53 nM

Compound: Cc1noc(C)c1-c1cc(NC(=O)C2CC2C2CC2)ccc1OCCN1CCCC1 (centres unmarked) [Compound 100, N-(3-(3,5-dimethylisoxazol-4-yl)-4-(2-(pyrrolidin-1-yl)ethoxy)phenyl)-[1,1′-bi(cyclopropane)]-2-carboxamide]
Ki: 2.89 nM

Compound: Cc1noc(C)c1-c1cc(NC(=O)c2c(F)cnn2C)ccc1OCCN1CCOCC1 [Compound 134, N-[3-(3,5-dimethylisoxazol-4-yl)-4-(2-morpholinoethoxy)phenyl]-4-fluoro-2-methyl-pyrazole-3-carboxamide]
Ki: 5.86 nM

Compound: Cc1noc(C)c1-c1cc(NC(=O)C2CC2)ccc1O[C@H]1CCCNC1 [Compound 178, N-[3-(3,5-dimethylisoxazol-4-yl)-4-[[(3S)-3-piperidyl]oxy]phenyl]cyclopropanecarboxamide]
Ki: 718 nM

Compound: CCOC1CC1C(=O)Nc1ccc(OCCN2CCCC2)c(-c2c(C)noc2C)c1 (centres unmarked) [Compound 115, N-(3-(3,5-dimethylisoxazol-4-yl)-4-(2-(pyrrolidin-1-yl)ethoxy)phenyl)-2-ethoxycyclopropane-1-carboxamide]
Ki: 8.52 nM

Compound: Cc1noc(C)c1-c1cc(NC(=O)C2CC2)ccc1OCCN1C[C@H]2C[C@H]2C1 [Compound 164, N-[4-[2-[(1R,5S)-3-azabicyclo[3.1.0]hexan-3-yl]ethoxy]-3-(3,5-dimethylisoxazol-4-yl)phenyl]cyclopropanecarboxamide]
Ki: 13.8 nM

Compound: Cc1noc(C)c1-c1cc(NC(=O)C2CC2)ccc1OCCN1[C@@H]2COC[C@H]1C2 [Compound 159, N-[3-(3,5-dimethylisoxazol-4-yl)-4-[2-[(1R,5S)-3-oxa-6-azabicyclo[3.1.1]heptan-6-yl]ethoxy]phenyl]cyclopropanecarboxamide]
Ki: 1.61 nM

Compound: Cc1nc(C)c(C(=O)Nc2ccc(OCCN3CCCC3)c(-c3c(C)noc3C)c2)s1 [Compound 110, N-(3-(3,5-dimethylisoxazol-4-yl)-4-(2-(pyrrolidin-1-yl)ethoxy)phenyl)-2,4-dimethylthiazole-5-carboxamide]
Ki: 110 nM

Compound: Cc1nc(C)c(C(=O)Nc2ccc(OC[C@H]3CCCCN3)c(-c3c(C)noc3C)c2)o1 [Compound 207, (R)—N-(3-(3,5-dimethylisoxazol-4-yl)-4-(piperidin-2-ylmethoxy)phenyl)-2,4-dimethyloxazole-5-carboxamide]
Ki: 235 nM

Compound: Cc1noc(C)c1-c1cc(NC(=O)c2cnoc2C)ccc1OC[C@H]1CCCCN1 [Compound 184, (R)—N-(3-(3,5-dimethylisoxazol-4-yl)-4-(piperidin-2-ylmethoxy)phenyl)-5-methylisoxazole-4-carboxamide]
Ki: 10.5 nM

Compound: Cc1noc(C)c1-c1cc(NC(=O)[C@@H]2C[C@H]2F)ccc1OCCN1CCCC1 [Compound 106, (1S,2R)—N-[3-(3,5-dimethylisoxazol-4-yl)-4-(2-pyrrolidin-1-ylethoxy)phenyl]-2-fluoro-cyclopropanecarboxamide]
Ki: 1.13 nM

Compound: Cc1cnoc1C(=O)Nc1ccc(OCCN2CCCC2)c(-c2c(C)noc2C)c1 [Compound 111, N-(3-(3,5-dimethylisoxazol-4-yl)-4-(2-(pyrrolidin-1-yl)ethoxy)phenyl)-4-methylisoxazole-5-carboxamide]
Ki: 23.8 nM

Compound: Cc1noc(C)c1-c1cc(NC(=O)c2ncnn2C)ccc1OC[C@H]1CCCCN1 [Compound 212, (R)—N-(3-(3,5-dimethylisoxazol-4-yl)-4-(piperidin-2-ylmethoxy)phenyl)-1-methyl-1H-1,2,4-triazole-5-carboxamide]
Ki: 38.6 nM

Compound: Cc1noc(C)c1-c1cc(NC(=O)Cc2ccccc2)ccc1OCCN1CCC1 [Compound 123, N-(4-(2-(azetidin-1-yl)ethoxy)-3-(3,5-dimethylisoxazol-4-yl)phenyl)-2-phenylacetamide]
Ki: 11.8 nM

Compound: Cc1noc(C)c1-c1cc(NC(=O)C2CC2)ccc1OCCN1CC[C@@H](O)C1 [Compound 148, (R)—N-(3-(3,5-dimethylisoxazol-4-yl)-4-(2-(3-hydroxypyrrolidin-1-yl)ethoxy)phenyl)cyclopropanecarboxamide]
Ki: 71.6 nM

Compound: Cc1nc(C)c(C(=O)Nc2ccc(OC[C@H]3CCCCN3)c(-c3c(C)noc3C)c2)s1 [Compound 194, (R)—N-(3-(3,5-dimethylisoxazol-4-yl)-4-(piperidin-2-ylmethoxy)phenyl)-2,4-dimethylthiazole-5-carboxamide]
Ki: 32.2 nM

Compound: CCOC1CC1C(=O)Nc1ccc(OCCN2CCC2)c(-c2c(C)noc2C)c1 (centres unmarked) [Compound 131, N-(4-(2-(azetidin-1-yl)ethoxy)-3-(3,5-dimethylisoxazol-4-yl)phenyl)-2-ethoxycyclopropane-1-carboxamide]
Ki: 77.7 nM

Compound: Cc1noc(C)c1-c1cc(NC(=O)C2CC2)ccc1OC[C@@H]1COCCN1 [Compound 171, (S)—N-(3-(3,5-dimethylisoxazol-4-yl)-4-(morpholin-3-ylmethoxy)phenyl)cyclopropanecarboxamide]
Ki: 184 nM
